From PubChem BioAssay (NCI)
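Five compound concentrations were applied to cells in 96-well plates for 48 hours; endpoints were derived by simple linear interpolation of the resulting dose-response curve. GI50 = concentration required for 50% inhibition of growth. TGI: total growth inhibition.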

Columns and labels:
Experiment in all cases: NCI-60 cell line screen, 48 h
[1] = tested on: A498 renal
[2] = tested on: A549 NSCLC
[3] = tested on: BT-549 breast
[4] = tested on: CAKI-1 renal
[5] = tested on: CCRF-CEM leukemia
[6] = tested on: DU-145 prostate
[7] = tested on: EKVX NSCLC
[8] = tested on: HCC-2998 colon
[9] = tested on: HCT-116 colon
[10] = tested on: HL-60(TB) leukemia
[11] = tested on: HOP-62 NSCLC
[12] = tested on: HOP-92 NSCLC
[13] = tested on: HS 578T breast
[14] = tested on: HT29 colon
[15] = tested on: IGROV1 ovarian
[16] = tested on: K-562 leukemia
[17] = tested on: LOX IMVI melanoma
[18] = tested on: M14 melanoma
[19] = tested on: MALME-3M melanoma
[20] = tested on: MCF7 breast
[21] = tested on: MDA-MB-231 breast
[22] = tested on: MDA-MB-468 breast
[23] = tested on: MOLT-4 leukemia
[24] = tested on: NCI-H226 lung
[25] = tested on: NCI-H23 lung
[26] = tested on: OVCAR-4 ovarian
[27] = tested on: PC-3 prostate
[28] = tested on: RPMI-8226 leukemia
[29] = tested on: RXF 393 renal
[30] = tested on: SF-268 CNS
[31] = tested on: SF-295 CNS
[32] = tested on: SK-MEL-2 melanoma
[33] = tested on: SK-MEL-5 melanoma
[34] = tested on: SK-OV-3 ovarian
[35] = tested on: SN12C renal
[36] = tested on: SNB-75 CNS
[37] = tested on: SR leukemia
[38] = tested on: T-47D breast
[39] = tested on: TK-10 renal
[40] = tested on: UACC-257 melanoma
[41] = tested on: UACC-62 melanoma
[42] = tested on: 786-0 renal
[43] = tested on: ACHN renal
[44] = tested on: COLO 205 colon
[45] = tested on: HCT-15 colon
[46] = tested on: KM12 colon
[47] = tested on: MDA-MB-435
[48] = tested on: NCI-H460 lung
[49] = tested on: NCI-H522 lung
[50] = tested on: OVCAR-3 ovarian
[51] = tested on: OVCAR-5 ovarian
[52] = tested on: OVCAR-8 ovarian
[53] = tested on: SF-539 CNS
[54] = tested on: SK-MEL-28 melanoma
[55] = tested on: SNB-19 CNS
[56] = tested on: SW-620 colon
[57] = tested on: UO-31 renal

`O=C(/C=C/c1ccc(F)cc1)c1nc2ccccc2n1Cc1ccc(F)cc1` was tested, and the GI50 [1] was over 100 µM, the TGI [1] was over 100 µM and the GI50 [2] was 3.92 µM. The TGI [2] was over 100 µM, the GI50 [3] was 2.6 µM and the TGI [3] was 8.56 µM. For the same molecule, the GI50 [4] was 2.26 µM, the TGI [4] was over 100 µM and the GI50 [5] was 2.26 µM. For the same molecule, the TGI [5] was 7.46 µM, the GI50 [6] was 3.48 µM and the TGI [6] was over 100 µM. For the same molecule, the GI50 [7] was 3.48 µM, the TGI [7] was over 100 µM and the GI50 [8] was 2.1 µM. It also gave a TGI [8] of 4.71 µM, a GI50 [9] of 1.86 µM and a TGI [9] of 4.46 µM. It also gave a GI50 [10] of 1.73 µM, a TGI [10] of 4.81 µM and a GI50 [11] of 3.2 µM. For the same molecule, the TGI [11] was 17.6 µM, the GI50 [12] was 2.56 µM and the TGI [12] was 57.9 µM. For the same molecule, the GI50 [13] was 2.58 µM, the TGI [13] was 20.4 µM and the GI50 [14] was 2.33 µM. The TGI [14] was 4.93 µM, the GI50 [15] was 3.03 µM and the TGI [15] was over 100 µM. For the same molecule, the GI50 [16] was 2.68 µM, the TGI [16] was over 100 µM and the GI50 [17] was 1.56 µM. The TGI [17] was 3.08 µM, the GI50 [18] was 2.82 µM and the TGI [18] was over 100 µM. The GI50 [19] was 2.61 µM, the TGI [19] was 9.59 µM and the GI50 [20] was 1.62 µM. For the same molecule, the TGI [20] was over 100 µM, the GI50 [21] was 2.25 µM and the TGI [21] was 5.59 µM. The GI50 [22] was 2.19 µM, the TGI [22] was 6.05 µM and the GI50 [23] was 2.06 µM. The TGI [23] was 6.04 µM, the GI50 [24] was 5.79 µM and the TGI [24] was over 100 µM. The GI50 [25] was 2.88 µM, the TGI [25] was 14.1 µM and the GI50 [26] was 4.3 µM. The TGI [26] was over 100 µM, the GI50 [27] was 3.63 µM and the TGI [27] was over 100 µM. For the same molecule, the GI50 [28] was 1.86 µM, the TGI [28] was 5.03 µM and the GI50 [29] was 1.59 µM. It also gave a TGI [29] of 3.4 µM, a GI50 [30] of 3.33 µM and a TGI [30] of over 100 µM. It also gave a GI50 [31] of 2.59 µM, a TGI [31] of 8.27 µM and a GI50 [32] of 2.35 µM. The TGI [32] was 6.17 µM, the GI50 [33] was 2.63 µM and the TGI [33] was 9.85 µM. The GI50 [34] was 15.5 µM, the TGI [34] was over 100 µM and the GI50 [35] was 3.64 µM. The TGI [35] was over 100 µM, the GI50 [36] was 1.11 µM and the TGI [36] was 6.44 µM. It also gave a GI50 [37] of 1.86 µM, a TGI [37] of 6.01 µM and a GI50 [38] of 3.13 µM. It also gave a TGI [38] of over 100 µM, a GI50 [39] of 2.97 µM and a TGI [39] of over 100 µM. The GI50 [40] was 3.1 µM, the TGI [40] was over 100 µM and the GI50 [41] was 2.02 µM. The TGI [41] was 7.09 µM.
For `Cn1cc(-c2cc(N)n3nc(-c4c[nH]c5ccc(Br)cc45)cc3n2)c2cc(Br)cnc21`, the GI50 [42] was 1.64 µM, the TGI [42] was 3.13 µM and the GI50 [1] was 1.55 µM. It also gave a TGI [1] of 3.42 µM, a GI50 [2] of 1.84 µM and a TGI [2] of 3.87 µM. The GI50 [43] was 1.66 µM, the TGI [43] was 3.12 µM and the GI50 [3] was 2.19 µM. It also gave a TGI [3] of 4.36 µM, a GI50 [4] of 1.49 µM and a TGI [4] of 3.77 µM. For the same molecule, the GI50 [5] was 1.61 µM, the TGI [5] was 4.26 µM and the GI50 [44] was 1.82 µM. For the same molecule, the TGI [44] was 3.36 µM, the GI50 [6] was 1.82 µM and the TGI [6] was 3.53 µM. The GI50 [8] was 1.76 µM, the TGI [8] was 3.24 µM and the GI50 [9] was 1.91 µM. It also gave a TGI [9] of 4.25 µM, a GI50 [45] of 1.69 µM and a TGI [45] of 3.8 µM. The GI50 [10] was 1.79 µM, the TGI [10] was 4.33 µM and the GI50 [11] was 1.68 µM. For the same molecule, the TGI [11] was 3.34 µM, the GI50 [13] was 2.29 µM and the TGI [13] was 5.36 µM. For the same molecule, the GI50 [14] was 1.97 µM, the TGI [14] was 3.84 µM and the GI50 [15] was 1.96 µM. For the same molecule, the TGI [15] was 4.11 µM, the GI50 [16] was 1.89 µM and the TGI [16] was 5.88 µM. For the same molecule, the GI50 [46] was 1.59 µM, the TGI [46] was 3.16 µM and the GI50 [17] was 1.7 µM. It also gave a TGI [17] of 3.29 µM, a GI50 [18] of 1.69 µM and a TGI [18] of 3.55 µM. It also gave a GI50 [19] of 1.89 µM, a TGI [19] of 3.52 µM and a GI50 [20] of 1.8 µM. It also gave a TGI [20] of 3.63 µM, a GI50 [21] of 1.78 µM and a TGI [21] of 3.54 µM. For the same molecule, the GI50 [47] was 1.71 µM, the TGI [47] was 3.21 µM and the GI50 [22] was 1.36 µM. It also gave a TGI [22] of 2.77 µM, a GI50 [23] of 2.11 µM and a TGI [23] of 10.6 µM. The GI50 [24] was 2.51 µM, the TGI [24] was 7.34 µM and the GI50 [25] was 1.76 µM. The TGI [25] was 3.6 µM, the GI50 [48] was 1.96 µM and the TGI [48] was 4.03 µM. For the same molecule, the GI50 [49] was 1.7 µM, the TGI [49] was 3.56 µM and the GI50 [50] was 1.67 µM. For the same molecule, the TGI [50] was 3.13 µM, the GI50 [26] was 1.95 µM and the TGI [26] was 3.93 µM. The GI50 [51] was 2.03 µM, the TGI [51] was 4.44 µM and the GI50 [52] was 2.01 µM. It also gave a TGI [52] of 4.22 µM, a GI50 [28] of 2.23 µM and a TGI [28] of 7.8 µM. For the same molecule, the GI50 [29] was 1.89 µM, the TGI [29] was 3.69 µM and the GI50 [30] was 2.25 µM. For the same molecule, the TGI [30] was 5.71 µM, the GI50 [31] was 1.88 µM and the TGI [31] was 4.29 µM. The GI50 [53] was 1.64 µM, the TGI [53] was 3.16 µM and the GI50 [32] was 1.79 µM. The TGI [32] was 3.74 µM, the GI50 [54] was 1.82 µM and the TGI [54] was 3.64 µM. The GI50 [33] was 2.08 µM, the TGI [33] was 4.49 µM and the GI50 [34] was 2.54 µM. For the same molecule, the TGI [34] was 7.27 µM, the GI50 [35] was 1.72 µM and the TGI [35] was 3.36 µM. It also gave a GI50 [55] of 2.15 µM, a TGI [55] of 4.76 µM and a GI50 [36] of 1.46 µM. The TGI [36] was 3.24 µM, the GI50 [37] was 1.93 µM and the TGI [37] was 5.87 µM. The GI50 [56] was 1.88 µM, the TGI [56] was 3.74 µM and the GI50 [38] was 1.8 µM. For the same molecule, the TGI [38] was 4.33 µM, the GI50 [39] was 1.78 µM and the TGI [39] was 3.99 µM. It also gave a GI50 [40] of 2 µM, a TGI [40] of 4.31 µM and a GI50 [41] of 1.6 µM. For the same molecule, the TGI [41] was 3.07 µM, the GI50 [57] was 1.62 µM and the TGI [57] was 3.36 µM.
